Measured values as given in article PMC9738727, “Purification and Characterization of Novel Anti-MRSA Peptides Produced by Brevibacillus sp. SPR-20” (Molecules, 2022).
Ends that are not written are not given here.

Key:
MRSA isolate 2468 [1] = experiment: Agar well diffusion, arbitrary activity of purification fractions; format: cell-based, Staphylococcus aureus; settings: 2-fold dilutions, AU per mg total protein
Method: Eight milliliters of the SPR-20 starter culture was added to 392 mL of Luria–Bertani (LB) broth (Titan Biotech Ltd., Rajasthan, India) in a 2 L flask. The culture was incubated at 30 °C and 150 rpm for 24 h before the crude supernatant was collected by centrifugation at 10,000× g and 4 °C for 15 min. Ammonium sulfate at 75% of saturation was added to the supernatant, and the precipitate was desalted by dialysis using a 3.5 kDa molecular weight cut-off (MWCO) SnakeSkin membrane (Pierce, Rockford, IL, USA) in the dialysis buffer (50 mM ammonium acetate pH 5.0 and 50 mM NaCl) at 4 °C for 16 h. The sample solution was purified by a HiTrap SP column under the elution gradient of buffer A (50 mM ammonium acetate pH 5.0 and 50 mM NaCl) and buffer B (50 mM ammonium acetate pH 5.0 and 1 M NaCl). The flow rate was set at 3 mL/min, and the wavelength was monitored at 214 nm. […] The peak was detected at 214 nm. […] The active fractions obtained from each purification step were prepared at different concentrations using 2-fold dilution, and the antimicrobial activity against MRSA isolate 2468 was determined by agar well diffusion assay.
The antimicrobial activity was measured by an agar well diffusion test with some modified methods. […] Each experiment was performed in three independent replicates, and the inhibition zone was measured and expressed as mean ± SD.

[2] = Circular dichroism secondary structure content (CONTINLL); format: physicochemical; settings: CD, 25 °C
Method: The purified peptides (0.6 mg/mL) were dissolved in deionized water or 50 mM SDS and introduced into the circular dichroism (CD) spectrophotometer (JASCO Corporation, Tokyo, Japan). A 1 mm quartz cell was used for the measurement. The CD spectra were collected at 25 °C in the wavelength between 190 and 260 nm with a scanning speed of 100 nm/min, a bandwidth of 1.0 nm, and a data resolution of 0.1 nm. Each experiment was performed in three replications, and the background spectrum of the corresponding solvent was subtracted from the peptide spectrum. The content of the secondary structure of the peptides was calculated using the CONTINLL program.

MRSA isolate 2468 [3] = experiment: Cell lysis (OD 625 nm), leakage of genetic materials (A260) and viable count; format: cell-based, Staphylococcus aureus; settings: for cell lysis (OD 625 nm reduction): within 1 h, PBS pH 7.4 + 4% CAMHB, mean ± SD, triplicate
Method: The lysis of bacterial cells was monitored by measuring the OD reduction at 625 nm, whereas the leakage of genetic material was evaluated by measuring the absorbance at 260 nm. Briefly, the bacterial colonies were collected from MH agar and then washed with PBS pH 7.4 three times. The OD at 625 nm of the washed cells was adjusted to 0.35 with PBS pH 7.4 supplemented with an incomplete medium (4% CAMHB) before the cells were transferred to a 96-well plate (100 μL/well). […] For each treatment condition at different time intervals, the reduction in OD at 625 nm was determined, and the supernatant of the treated samples was collected to measure the absorbance at 260 nm. The experiment was performed in triplicate, and the results were expressed as mean ± SD. Two-way ANOVA and post hoc Tukey’s test (p-value < 0.05) were used to determine the significance of differences between treated and non-treated samples.

S. aureus TISTR 517 [4] = experiment: microbe, parasite or virus in culture; format: cell-based, Staphylococcus aureus; settings: TISTR 517, 24 h
Method: (§1) The MIC and MBC of the purified peptides from SPR-20 were determined by broth microdilution assay following a standard guideline. S. aureus TISTR 517 and MRSA isolate 142, 1096, and 2468 as bacterial strains were cultured in MH agar at 37 °C for 18 h. […] The cells were then diluted to 5 × 10^6 CFU/mL using cation-adjusted Mueller Hinton broth (CAMHB). The diluted cell suspension (10 μL) was transferred to each well of a 96-well plate. The purified peptide in the total volume of 100 µL was added to each well to obtain the final concentrations between 0.5 and 64 µg/mL. The standard antibiotics (vancomycin and cefoxitin) (Sigma-Aldrich Co., St. Louis, MO, USA) and antibiotic-free samples were the positive and negative controls, respectively. CAMHB without tested bacteria was used as a blank. The 96-well plates were incubated at 37 °C for 24 h, and the experiment was performed in triplicate for each strain. […] Subsequently, 100 µL of each dilution was spread on MH agar and then incubated at 37 °C for 24 h.

MRSA isolate 142 = experiment: microbe, parasite or virus in culture; format: cell-based, Staphylococcus aureus; settings: isolate 142, 24 h
Method: as §1

[5] = tested on: S. aureus TISTR 517 and MRSA strains; experiment: microbe, parasite or virus in culture; format: cell-based, Staphylococcus aureus; settings: TISTR 517 and strains, 18 h
Method: as §1

MRSA isolate 2468 [6] = experiment: microbe, parasite or virus in culture; format: cell-based, Staphylococcus aureus; settings: isolate 2468, 24 h
Method: as §1

MRSA isolate 1096 = experiment: microbe, parasite or virus in culture; format: cell-based, Staphylococcus aureus; settings: isolate 1096, 24 h
Method: as §1

S. aureus TISTR 517 [7] = experiment: microbe, parasite or virus in culture; format: cell-based, Staphylococcus aureus; settings: P1 at 15 µg/mL, from vancomycin standard curve
Method: (§2) The antimicrobial activity was measured by an agar well diffusion test with some modified methods. In brief, single colonies of the tested strains were suspended in 0.85% NaCl, and then the OD at 625 nm was adjusted to 0.1. The cell suspensions were spread on MH agar, and the tested samples (100 μL) were introduced into each well before incubation at 37 °C for 24 h. Each experiment was performed in three independent replicates, and the inhibition zone was measured and expressed as mean ± SD.
(§3) The agar well diffusion test was performed in triplicate for potency determination, using S. aureus TISTR 517 and MRSA isolate 2468 as the tested bacteria. […] The remaining standard and sample solutions were transferred to the other 3 wells. The plates were incubated at 37 °C for 18 h.

MRSA isolate 2468 [8] = experiment: microbe, parasite or virus in culture; format: cell-based, Staphylococcus aureus; settings: P1 at 15 µg/mL, from vancomycin standard curve
Method: as §2, §3

In the case of VVVNVLVKVLPPPVV [Peptide P1], the “Specific Activity” value (MRSA isolate 2468 [1]) is reported as 1694 AU/mg, the Random ([2]; 0.6 mg/mL in 50 mM SDS) is reported as 34.6% and the Turn ([2]; 0.6 mg/mL in 50 mM SDS) is reported as 10.6%. The α-Helix ([2]; 0.6 mg/mL in 50 mM SDS) was 25.5%, the β-Strand ([2]; 0.6 mg/mL in 50 mM SDS) was 29.3% and the Random ([2]; 0.6 mg/mL in H2O) was 32.4%. For the same sequence, the Turn ([2]; 0.6 mg/mL in H2O) was 19.5%, the α-Helix ([2]; 0.6 mg/mL in H2O) was 4.1% and the β-Strand ([2]; 0.6 mg/mL in H2O) was 44.0%. The “increase of genetic content in the supernatant (A260)” value (MRSA isolate 2468 [3]; 30 min, 1×-4× MIC) was 1.15–1.47 times, the “inhibition by viable cell count” value (MRSA isolate 2468 [3]; 24 h, 1× MIC) was 34.46 ± 0.64% and the “increase of genetic release (A260)” value (MRSA isolate 2468 [3]; 24 h, 1×-4× MIC) was 1.81–2.07 times. For the same sequence, the “inhibition by viable cell count” value (MRSA isolate 2468 [3]; 24 h, 2× MIC) was 64.47 ± 3.56%, the “inhibition by viable cell count” value (MRSA isolate 2468 [3]; 24 h, 4× MIC) was 96.13 ± 6.70% and the “cell lysis (OD 625 nm reduction)” value (MRSA isolate 2468 [3]; 1× MIC) was 12.68 ± 13.57%. The “cell lysis (OD 625 nm reduction)” value (MRSA isolate 2468 [3]; 2× MIC) was 26.13 ± 9.48%, the “cell lysis (OD 625 nm reduction)” value (MRSA isolate 2468 [3]; 4× MIC) was 20.75 ± 2.75% and the MBC (S. aureus TISTR 517 [4]) was 4 µg/mL. For the same sequence, the MIC (S. aureus TISTR 517 [4]) was 2 µg/mL, the MBC (MRSA isolate 142) was 4 µg/mL and the MIC (MRSA isolate 142) was 2 µg/mL. For the same sequence, the MIC [5] was 1.27 µM, the MBC (MRSA isolate 2468 [6]) was 4 µg/mL and the MIC (MRSA isolate 2468 [6]) was 2 µg/mL. For the same sequence, the MBC (MRSA isolate 1096) was 4 µg/mL, the MIC (MRSA isolate 1096) was 2 µg/mL and the “vancomycin concentration of equivalent potency” value (S. aureus TISTR 517 [7]) was 76.29 to 87.36 µg/mL. For the same sequence, the “vancomycin concentration of equivalent potency” value (MRSA isolate 2468 [8]) was 85.97 to 109.05 µg/mL.
